Data published in EP0745595A1, “3-(3-Aryloxyphenyl)-1-(substituted methyl)-s-triazine-2,4,6-oxo or thiotrione herbicidal agents” (American Cyanamid Company, priority 1995, dated 1996).

Columns and labels:
Type in all cases: in vivo
[1] = tested on: ABUTILON THEOPHRASTI, MEDIC.; experiment: Postemergence herbicidal evaluation, ABUTH (Velvetleaf); settings: rated four to five weeks after treatment, averaged
In short: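 This postemergence herbicide test used two-week-old velvetleaf seedlings grown in jiffy flats. Each compound was sprayed at 40 psi as a dispersion in 50/50 acetone/water with 0.5% TWEEN®20 surfactant. Plants then received routine greenhouse care. After four to five weeks, injury was scored visually on a 0-9 scale against a control, and replicate tests were averaged.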

CHENOPODIUM ALBUM, L. [2] = experiment: Postemergence herbicidal evaluation, CHEAL (Lambsquarters, Common); settings: rated four to five weeks after treatment, averaged
In short: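 Postemergence herbicidal activity on Chenopodium album was tested by spraying two-week-old seedlings grown in jiffy flats with compound in acetone/water (50/50) plus 0.5% TWEEN®20, using a 40 psi nozzle. Four to five weeks after treatment, stand, vigor, malformation, size, chlorosis and overall appearance were scored 0-9 relative to controls, with repeat tests averaged.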

[3] = tested on: AMBROSIA ARTEMISIIFOLIA, L.; experiment: Preemergence herbicidal evaluation, AMBEL (Ragweed, Common); settings: four to five weeks after treatment
Text: (§1) Results of herbicide evaluation are expressed on a rating scale (0-9). The scale is based upon a visual observation of plant stand, vigor, malformation, size, chlorosis and overall plant appearance as compared with a control.
(§2) The preemergence herbicidal activity of the test compounds of the present invention is exemplified by the following tests in which the seeds of a variety of monocotyledonous and dicotyledonous plants are separately mixed with potting soil and planted on top of approximately one inch of soil in separate pint cups. […] The treated cups are then placed on greenhouse benches, watered and cared for in accordance with conventional greenhouse procedures. From four to five weeks after treatment, the tests are terminated and each cup is examined and rated according to the rating system provided in Example 40.
(§3) The compounds evaluated are reported by compound number given in Example 40.

CHENOPODIUM ALBUM, L. [4] = experiment: Preemergence herbicidal evaluation, CHEAL (Lambsquarters, Common); settings: four to five weeks after treatment
In short: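 First, seeds in potting soil are sown atop soil in cups. Next, the surface is sprayed with test compound in aqueous acetone at roughly 0.125 to 0.50 kg per hectare. After four to five weeks of greenhouse care, each cup is scored 0-9 against a control.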

[5] = tested on: ECHINOCHLOA ORYZOIDES (ARD.)FRITSCH; experiment: Preemergence weed control under flooded paddy conditions, ECHORC (Watergrass (Calif.)); settings: preemergence weeds, rated three to four weeks after treatment
In short: (§4)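 Visual 0-9 rating against untreated control, covering stand, vigor, malformation, size and chlorosis, scored three to four weeks post-treatment in a greenhouse. Application was into 1.5-3 cm flood water over silt loam sown at 0.5 cm. The 50/50 v/v aqueous/acetone doses were about 0.5, 0.25, 0.125 and 0.063 kg/ha.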

CYPERUS IRIA = experiment: Preemergence weed control under flooded paddy conditions, CYPIR (Rice Flatsedge); settings: preemergence weeds, rated three to four weeks after treatment
Protocol: as §1
Preemergence herbicidal activity under flooded paddy conditions is determined as follows: plant seeds or propagating organs are planted in the top 0.5 cm of silt loam soil in 32 oz. plastic containers with a diameter of 10.5 cm and no drainage holes. Water is added to these containers and maintained at 1.5 to 3 cm above the soil surface for the duration of the experiment. […] The treated containers are placed on greenhouse benches and cared for according to normal greenhouse procedures.- Three to four weeks after treatment the test is terminated and each container is examined and herbicidal effect rated according to the rating system provided in Example 40. The compounds evaluated are reported by compound number given in Example 40.
Plant species employed in this example are reported by header abbreviation, common name and scientific name.

[…], PRESL. = Preemergence weed control under flooded paddy conditions, MOOVA (Monochoria); settings: preemergence weeds, rated three to four weeks after treatment
In short: as §4

[6] = tested on: ORYZA SATIVA, L. TEBONNET; experiment: Rice tolerance to post-transplant applications under flooded paddy conditions, ORYSAT (Rice, Tebonnet); settings: post-transplant rice; for ORYSAT herbicidal rating (rice tolerance): rated three to four weeks after treatment; for Herbicidal effect rating, ORYSAT: 3-4 weeks after treatment;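 as to ORYSAT herbicidal rating (rice tolerance): applied to flooded soil surface three days after transplanting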
In short: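 Rated on a visual 0–9 scale against untreated plants 3–4 weeks after application, rice (cv. Tebonnet) tolerance was tested by applying compounds (approx. 0.5–0.063 kg/ha, acetone/water 50/50) to flooded soil three days post-transplant, water kept 1.5–3 cm deep.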

[7] = tested on: GLYCINE MAX(L) MERR. CV. WILLIAMS; experiment: Postemergence herbicidal evaluation, GLXMAW (Soybean, Williams); settings: crop, rated four to five weeks after treatment, averaged
Protocol: In the tests, seedling plants are grown in jiffy flats for about two weeks. The test compounds are dispersed in 50/50 acetone/water mixtures containing 0.5% TWEEN®20, a polyoxyethylene sorbitan monolaurate surfactant of Atlas Chemical Industries, in sufficient quantities to provide the equivalent of about 0.125 kg to 0.500 kg per hectare of active compound when applied to the plants through a spray nozzle operating at 40 psi for a predetermined time. After spraying, the plants are placed on greenhouse benches and are cared for in the usual manner, commensurate with conventional greenhouse practices. From four to five weeks after treatment, the seedling plants are examined and rated according to the rating system set forth below. Where more than one test is involved for a given compound, the data are averaged.
Plant species employed in these evaluations are reported by header abbreviation, common name and scientific name.
as §1

CASSIA OBTUSIFOLIA, L. = experiment: Preemergence herbicidal evaluation, CASOB (Sicklepod); settings: Rate 0.500 kg/ha, rated four to five weeks after treatment
Text: as §1, §2, §3

GALIUM APARINE = experiment: Preemergence herbicidal evaluation, GALAP (Galium); settings: Rate 0.500 kg/ha, rated four to five weeks after treatment
Text: as §1, §2, §3

[8] = tested on: CYPERUS SEROTINUS, ROTTB.; experiment: Preemergence weed control under flooded paddy conditions, CYPSE (Flatsedge); settings: preemergence, 3-4 weeks after treatment
In short: as §4

SAGITTARIA PYGMAEA, L. = experiment: Preemergence weed control under flooded paddy conditions, SAGPY (Arrowhead (Pygmaea)); settings: preemergence, 3-4 weeks after treatment
In short: as §4

COC(=O)C(C)n1c(=O)n(C)c(=O)n(-c2cc(Oc3c(F)cc(C(F)(F)F)cc3Cl)ccc2Br)c1=O (stereo not drawn) [Compound 1, Methyl 3-{2-bromo-5-[(2-chloro-α,α,α,6-tetrafluoro-p-tolyl)oxy]phenyl}tetrahydro-α,5-dimethyl-2,4,6-trioxo-s-triazine-1(2H)-acetate]
2.0: ORYSAT herbicidal rating (rice tolerance) ([6]; Rate 0.250 kg/ha)
3.0: ORYSAT herbicidal rating (rice tolerance) ([6]; Rate 0.500 kg/ha)
1.0: ORYSAT herbicidal rating (rice tolerance) ([6]; Rate 0.125 kg/ha)
9.0: ABUTH, herbicide rating (0-9) ([1]; Rate 0.125 kg/ha) | ABUTH, herbicide rating (0-9) ([1]; Rate 0.250 kg/ha) | ABUTH, herbicide rating (0-9) ([1]; Rate 0.500 kg/ha) | CHEAL, herbicide rating (0-9) (CHENOPODIUM ALBUM, L. [2]; Rate 0.125 kg/ha) | CHEAL, herbicide rating (0-9) (CHENOPODIUM ALBUM, L. [2]; Rate 0.250 kg/ha) | CHEAL, herbicide rating (0-9) (CHENOPODIUM ALBUM, L. [2]; Rate 0.500 kg/ha) | CHEAL rating (CHENOPODIUM ALBUM, L. [4]; Rate 0.125 kg/ha) | CHEAL rating (CHENOPODIUM ALBUM, L. [4]; Rate 0.250 kg/ha) | CHEAL rating (CHENOPODIUM ALBUM, L. [4]; Rate 0.500 kg/ha) | ECHORC herbicidal rating ([5]; Rate 0.125 kg/ha) | ECHORC herbicidal rating ([5]; Rate 0.250 kg/ha) | ECHORC herbicidal rating ([5]; Rate 0.500 kg/ha) | CYPIR herbicidal rating (CYPERUS IRIA; Rate 0.125 kg/ha) | CYPIR herbicidal rating (CYPERUS IRIA; Rate 0.250 kg/ha) | CYPIR herbicidal rating (CYPERUS IRIA; Rate 0.500 kg/ha) | MOOVA herbicidal rating ([…], PRESL.; Rate 0.125 kg/ha) | MOOVA herbicidal rating ([…], PRESL.; Rate 0.250 kg/ha) | MOOVA herbicidal rating ([…], PRESL.; Rate 0.500 kg/ha)
0.0: AMBEL rating ([3]; Rate 0.125 kg/ha) | AMBEL rating ([3]; Rate 0.250 kg/ha) | AMBEL rating ([3]; Rate 0.500 kg/ha)

COC(=O)Cn1c(=O)n(C)c(=O)n(-c2cc(Oc3ccc(F)cc3C(F)(F)F)ccc2[N+](=O)[O-])c1=O [Compound 21]
7.0: CASOB herbicidal rating (CASSIA OBTUSIFOLIA, L.)
0.0: Herbicidal effect rating, CYPSE ([8]; 0.063 kg/ha) | Herbicidal effect rating, CYPSE ([8]; 0.125 kg/ha) | Herbicidal effect rating, CYPSE ([8]; 0.250 kg/ha) | Herbicidal effect rating, CYPSE ([8]; 0.500 kg/ha) | Herbicidal effect rating, SAGPY (SAGITTARIA PYGMAEA, L.; 0.063 kg/ha) | Herbicidal effect rating, SAGPY (SAGITTARIA PYGMAEA, L.; 0.125 kg/ha) | Herbicidal effect rating, SAGPY (SAGITTARIA PYGMAEA, L.; 0.250 kg/ha) | Herbicidal effect rating, SAGPY (SAGITTARIA PYGMAEA, L.; 0.500 kg/ha) | Herbicidal effect rating, ORYSAT ([6]; 0.063 kg/ha) | Herbicidal effect rating, ORYSAT ([6]; 0.125 kg/ha) | Herbicidal effect rating, ORYSAT ([6]; 0.250 kg/ha)
0.5: Herbicidal effect rating, ORYSAT ([6]; 0.500 kg/ha)
4.0: GLXMAW, herbicide rating (0-9) ([7]; Rate 0.125 kg/ha) | GLXMAW, herbicide rating (0-9) ([7]; Rate 0.250 kg/ha) | GLXMAW, herbicide rating (0-9) ([7]; Rate 0.500 kg/ha)
9.0: GALAP herbicidal rating (GALIUM APARINE)
